Experimental data: patent US20070166547A1, “Use of a layer consisting of hydrophobic linear, or two-dimensional polycyclic aromatics as a barrier layer or an encapsulation and electric components constructed with a layer of this type and comprising organic polymers” (priority 2003, published 2007)

Legend:
[1] = test system: adenosine-sensitive receptors of thrombocytes; test: ADP-induced aggregation of thrombocytes in vitro (Born method); assay type: cell-based, rabbit; conditions: 3 min incubation, ADP 10^−5 M
Description: The compounds according to the invention were studied for the effect of aggregation of thrombocytes induced by a preliminary introduction of a solution of an aggregation inductor with a competing introduction of the compounds according to the invention.
The aggregation of thrombocytes was studied by the Born method based on determination of the changes in the optical density of plasma enriched with thrombocytes after its incubation with an aggregation inductor.
Adenozinediphosphoric acid (ADP) was selected as an aggregation inductor, which in fact is an aggregation generator. Use was made of a sample (registration number 885) of the Sigma Diagnostics Company (USA) in final concentration of 10^−5 M.
The experiments were carried out on male rabbits of the “Chinchilla” breed having a mass of 2.7±0.3 kg. 18-24 hours prior to the experiment they were deprived of feed while preserving free access to water.
To obtain plasma enriched with thrombocytes, blood was taken from a cut of a marginal vein of the rabbit ear, the sample was stabilized with 3.8% of sodium citrate solution in a ratio of 9:1 and centrifuged at 200 g (1000 rev/min) for 10 minutes. The top supernatant layer enriched with thrombocytes was transferred by an automatic dropper into a silicone test tube and kept at 37° C. The plasma enriched with thrombocytes contained, on the average, […]. If this content exceeded the specified 3×10^8 blood platelets in 1 liter, this sample was diluted to the necessary concentration with plasma deprived of thrombocytes, which was obtained by centrifuging blood at 650 g during 10 minutes.
The measurements of the optical density of the samples were made on two-channel aggregometer of the “Chronolog” Company (USA). A flask containing 490 mkl of plasma rich with thrombocytes was placed in a device, into which a magnetic agitator covered with Teflon was lowered. The index of maximum amplitude of aggregation (MA) in percent of a fall of the plasma optical density under effect of the aggregation inductor was recorded. The control index MA of plasma was compared with the MA of plasma incubated for 3 minutes with different concentrations of the compounds: from 10^−3 to 10^−7 in vitro experiments or with plasma obtained 15, 30, 60 and 120 minutes after intravenous administration of different doses of the compounds in vivo experiments.
The process of aggregation of thrombocytes was recorded with the help of a computer; on the monitor screen the there were depicted curves reflecting changes of the optical density of the plasma enriched which was taken as a standard 100% compared to the optical density of the non-thrombocyte plasma taken for 0% content of thrombocytes.
Under in vitro conditions a flask was filled with blood plasma enriched with thrombocytes, to which an aggregation inductor ADP was added at a concentration of 10^−5 M, incubated for 3 minutes, and then the compounds according to the invention were introduced directly into the flask. Their action by aggregation of thrombocytes was studied after 3-minute incubation in a wide range of concentrations from 10^−3 to 10^−7 M to minimum concentration of 10^−7 M not inducing no effect of suppressing the aggregation.

plasma hemostasis = test: Partial activated thromboplastin time (PATT) after intravenous administration; assay type: in vivo, rabbit
Description: The investigations were performed on 72 rabbits of the “Chinchilla” breed with a mass of 2.5±0.3 kg, who were administered which solutions of compounds 2, 15, 21, 37 in doses of 15, 30 and 60 mg/kg intravenously. The experiments included the thrombin-test (series No. 7300) and the coagulability-test (series No. 5000) purchased from the scientific-and-production association (SPA) “Renam”, thromboplastin (series No. 240600) and calcium chloride purchased from the SPA “MedioLab”
The static parameters of the blood and plasma coagulation (partial activated thromboplastin time, thrombin time, maximum coagulation activity (test for auto coagulation) were determined using the Behnk Electronic coagulometer (Germany). The operating principle of this instrument is based on the fact that the formed blood clot breaks the contacts of the pulse counter in the flask-pin circuit, said pin permanently oscillating in a vertical plane. The moment of formation of the clot is registered by stopping the stop watch hand.
The measurements were effected at a constant temperature of 37° C. maintained by a temperature control unit.
Compounds 2, 15, 21, 37 according to the invention at a concentration of 15, 30 and 60 mg/kg were introduced to the above experimental animals intravenously, and their blood samples were taken off 15, 30, 60 and 120 minutes after the administration.
The blood plasma samples deprived of thrombocytes obtained as described above in an amount of 0.1 ml were put in a coagulometer flask and heated for 1 minute at 37° C., then 0.1 ml of 0.277% solution of calcium chloride was added and the blood clotting time was registered. The coagulation time T in seconds of the control plasma and plasma obtained after intravenous administration after 15, 30, 60 and 120 minutes were compared.

## O=c1[nH][nH]c(=O)c2nccnc12.[Li] [Compound 25, lithium salt of pyrazine[2,3-d]-6H-pyridazine-5,8-dione]
[1]; 10^−3 M
  MA - fall of optical density of plasma, % to the standard: 48.2 ± 2.9 %
[1]; 10^−4 M
  MA - fall of optical density of plasma, % to the standard: 48.6 ± 2.0 %
[1]; 10^−5 M
  MA - fall of optical density of plasma, % to the standard: 43.4 ± 3.2 %
[1]; 10^−6 M
  MA - drop of optical density, % compared to control: 50.3 ± 2.1%
[1]; 10^−7 M
  MA - drop of optical density, % compared to control: 50.1 ± 3.0%

## Nc1ncc2c(=O)[nH][nH]c(=O)c2n1 [Compound 36, 2-amino-pyrimido[4,5-d]-6H-pyridazine-5,8-dione]
[1]; 10^−3 M
  MA - fall of optical density of plasma, % to the standard: 45.8 ± 2.3 %
[1]; 10^−4 M
  MA - fall of optical density of plasma, % to the standard: 46.9 ± 2.4 %
[1]; 10^−5 M
  MA - fall of optical density of plasma, % to the standard: 40.1 ± 2.0 %
[1]; 10^−6 M
  MA - drop of optical density, % compared to control: 49.3 ± 2.6%
[1]; 10^−7 M
  MA - drop of optical density, % compared to control: 49.7 ± 1.8%

## O=c1[nH][nH]c(=O)c2c(Br)ncnc12.[K] [Compound 37, potassium salt of 4-bromine-pyrimido[4,5-D]-6H-pyridazine-5,8-dione]
[1]; 10^−3 M
  MA - fall of optical density of plasma, % to the standard: 46.9 ± 2.7 %
[1]; 10^−4 M
  MA - fall of optical density of plasma, % to the standard: 47.1 ± 2.0 %
[1]; 10^−5 M
  MA - fall of optical density of plasma, % to the standard: 40.6 ± 1.7 %
[1]; 10^−6 M
  MA - drop of optical density, % compared to control: 48.1 ± 2.9%
[1]; 10^−7 M
  MA - drop of optical density, % compared to control: 50.1 ± 1.0%
Plasma hemostasis; dose 15.0 mg/kg intravenously
  T, s after 15 minutes (PATT): 37.0 ± 0.2 s
  T, s after 30 minutes (PATT): 37.1 ± 0.1 s
  T, s after 60 minutes (PATT): 37.0 ± 0.2 s
  T, s after 120 minutes (PATT): 36.9 ± 0.1 s
Plasma hemostasis; dose 30.0 mg/kg intravenously
  T, s after 15 minutes (PATT): 33.1 ± 0.1 s
  T, s after 30 minutes (PATT): 33.3 ± 0.1 s
  T, s after 60 minutes (PATT): 33.3 ± 0.2 s
  T, s after 120 minutes (PATT): 33.0 ± 0.4 s
Plasma hemostasis; dose 60.0 mg/kg intravenously
  T, s after 15 minutes (PATT): 32.5 ± 0.1 s
  T, s after 30 minutes (PATT): 32.3 ± 0.2 s
  T, s after 60 minutes (PATT): 32.4 ± 0.1 s
  T, s after 120 minutes (PATT): 32.6 ± 0.3 s
Plasma hemostasis; doses 15.0, 30.0, 60.0 mg/kg
  effect on the PATT (overall): do not affect the PATT
